Experimental findings from US10035790B2, “RORγ modulators” (BRISTOL-MYERS SQUIBB COMPANY, priority 2012, dated 2018) are described below.

The first experiment addresses T1, ligand binding domain of human RORγ (A262-S507) (Homo sapiens, UniProt P51449).
T1 construct: made in house; host or cells: E. coli
T1 sequence (P51449 262-507): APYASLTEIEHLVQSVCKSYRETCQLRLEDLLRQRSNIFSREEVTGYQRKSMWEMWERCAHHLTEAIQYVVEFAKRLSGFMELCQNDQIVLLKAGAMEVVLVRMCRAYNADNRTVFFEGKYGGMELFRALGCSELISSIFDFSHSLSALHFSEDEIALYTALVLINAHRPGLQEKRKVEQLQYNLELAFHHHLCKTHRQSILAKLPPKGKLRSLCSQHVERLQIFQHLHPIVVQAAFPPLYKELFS
The experiment in a line: General RORγ SPA binding assay (competition with [3H]25-hydroxycholesterol). The following applies: IC50, RORγ SPA binding assay, inhibition of [3H]25-hydroxycholesterol binding. In a few lines:
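N-terminally His-tagged protein was expressed in E. coli and nickel-purified. Then 50 nM protein was preincubated with compound for 15 min at room temperature in PBS with 0.5% fatty acid free BSA, followed by radioligand for 15 min and copper His-tag SPA beads for 30 min. IC50 came from percent inhibition of binding.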
A word on the IC50: it is the point on the concentration scale where inhibition reaches its midpoint. On to `Cc1nc(C)c(C(=O)NCc2ccnc(C(F)(F)F)n2)c(C2CCN(C(=O)Oc3c(F)cccc3F)CC2)n1` [Compound A123, 2,6-Difluorophenyl 4-{2,6-dimethyl-5-[({[2-(trifluoromethyl)pyrimidin-4-yl]methyl}amino)carbonyl]pyrimidin-4-yl}piperidine-1-carboxylate], for which the IC50 turned out to be 5.4 nM.

Consider `Cc1nc(C)c(C(=O)NCc2ccnc(C(F)(F)F)n2)c(C2CCN(C(=O)Oc3ccccc3F)CC2)n1` [Compound A124, 2-Fluorophenyl 4-{2,6-dimethyl-5-[({[2-(trifluoromethyl)pyrimidin-4-yl]methyl}amino)carbonyl]pyrimidin-4-yl}piperidine-1-carboxylate], for which the IC50 worked out at 11.4 nM.

`Cc1nc(C)c(C(=O)NCc2ccnc(C(F)(F)F)n2)c(C2CCN(C(=O)Oc3ccccc3)CC2)n1` [Compound A125, Phenyl 4-{2,6-dimethyl-5-[({[2-(trifluoromethyl)pyrimidin-4-yl]methyl}amino)carbonyl]pyrimidin-4-yl}piperidine-1-carboxylate] came in with a half-inhibitory concentration (IC50) of 11.6 nM.

For the molecule `Cc1nc(N)nc(C2CCN(C(=O)Oc3ccccc3F)CC2)c1C(=O)NCc1ccnc(C(F)(F)F)n1` [Compound A126, 2-Fluorophenyl 4-{2-amino-6-methyl-5-[({[2-(trifluoromethyl)pyrimidin-4-yl]methyl}amino)carbonyl]pyrimidin-4-yl}piperidine-1-carboxylate], the IC50 was 15.2 nM.

Staying with this experiment, now noted: RORγ SPA binding assay, inhibition of [3H]25-hydroxycholesterol binding; read-out: IC50.
For the molecule `Cc1cc(C)cc(CNC(=O)c2cnc(C)nc2C2CCN(C(=O)Oc3ccccc3Cl)CC2)c1` [Compound A119, 2-Chlorophenyl 4-[5-({[(3,5-dimethylphenyl)methyl]amino}carbonyl)-2-methylpyrimidin-4-yl]piperidine-1-carboxylate], the IC50 was found to be 6.2 nM.

Consider `Cc1cc(C)cc(CNC(=O)c2cnc(C)nc2C2CCN(C(=O)Oc3c(F)cccc3F)CC2)c1` [Compound A120, 2,6-Difluorophenyl 4-[5-({[(3,5-dimethylphenyl)methyl]amino}carbonyl)-2-methylpyrimidin-4-yl]piperidine-1-carboxylate], for which the half-maximal inhibitory concentration (IC50) is 6 nM.

Turning to `Cc1nc(C)c(C(=O)NCc2ccnc(C(F)(F)F)n2)c(C2CCN(C(=O)Cc3c(F)cccc3F)CC2)n1` [Compound A121, 4-{1-[(2,6-Difluorophenyl)acetyl]piperidin-4-yl}-2,6-dimethyl-N-{[2-(trifluoromethyl)pyrimidin-4-yl]methyl}pyrimidine-5-carboxamide], the IC50 came out at 58.4 nM.

In the case of `Cc1nc(C)c(C(=O)NCc2ccnc(C(F)(F)F)n2)c(C2CCN(C(=O)Nc3c(F)cccc3F)CC2)n1` [Compound A122, 4-(1-{[(2,6-difluorophenyl)amino]carbonyl}piperidin-4-yl)-2,6-dimethyl-N-{[2-(trifluoromethyl)pyrimidin-4-yl]methyl}pyrimidine-5-carboxamide], the 50% inhibitory concentration (IC50) was determined as 116 nM.

`C/C(=N\Oc1cccc(C(F)(F)F)c1)c1c(C)nc(C)nc1C1CCN(C(=O)Cc2c(F)cccc2F)CC1` [Compound B1, (1E)-1-(4-{1-[(2,6-Difluorophenyl)acetyl]piperidin-4-yl}-2,6-dimethylpyrimidin-5-yl)ethanone O-[3-(trifluoromethyl)phenyl]]: the 50% inhibitory concentration (IC50) turned out to be 54 nM.

As to `C/C(=N/Oc1ccnc(C(F)(F)F)c1)c1c(C)nc(C)nc1C1CCN(C(=O)Cc2c(F)cccc2F)CC1` [Compound B2, (1Z)-1-(4-{1-[(2,6-Difluorophenyl)acetyl]piperidin-4-yl}-2,6-dimethylpyrimidin-5-yl)ethanone 0-[2-(trifluoromethyl)pyridin-4-yl]oxime], the IC50 stood at 444 nM.

Consider `C/C(=N\Oc1cccc(C(F)(F)F)c1)c1cnc(C)nc1C1CCN(C(=O)Cc2c(F)cccc2F)CC1` [Compound B3, (E)-2-(2,6-Difluorophenyl)-1-(4-(2-methyl-5-(1-(3-(trifluoromethyl)phenoxyimino)ethyl)pyrimidin-4-yl)piperidin-1-yl)ethanone], for which the IC50 worked out at 3.1 nM.
